Test results published in paper PMC6686047, “Efficient Inhibition of Human Papillomavirus Infection by L2 Minor Capsid-Derived Lipopeptide” (mBio, 2019).

System: intracellular HPV L1 and L2
Experiment: Immunoblot detection of intracellular L1 and L2
Type: cell-based, HPV16
Conditions: CHO-K1 cells, HPV-GFP MOI of 50; 500 nM 13-46st, 100 nM BafA1 or both for 24 h
Method: FIG 5 The L2N lipopeptide blocks HPV entry without affecting HPV capsid priming and internalization. (A) Cell binding and uptake of L2N lipopeptide. HeLa cells were incubated with 500 nM FITC-m13-46st peptide for indicated times. Images were captured after three PBS washes. Bar, 25 μm. (B) L2N lipopeptide inhibits HPV-GFP entry. HeLa cells were treated with 500 nM L2N lipopeptide (13-46st) before (pre), during (co), or after (post) HPV-GFP inoculation. Mock, no peptide treatment. GFP intensity was analyzed at 36 hpi. Bar, 200 μm. (C) Peptide addition/withdrawal assays were performed as indicated in the schematic diagram (top). CHO-K1 cells were incubated with HPV-Lucia at 4°C for 2 h. […] Lucia activity was analyzed at 40 hpi. […] Intracellular L1 and L2 levels were determined by immunoblotting with MD2H11 and JWW-1, respectively. […] HPV L2 JWW-1 epitope exposure was analyzed by immunostaining with JWW-1 antibody (in red). […]
FIG 6 The L2N lipopeptide blocks TGN trafficking of HPV, leading to rapid virion degradation. […] Localization of the TGN (green) was analyzed by immunostaining with anti-P230 antibody. […] The ratios of EdU puncta in the nucleus (B) or in the TGN (C) were quantified based on representative images under each condition. P values were determined by ordinary one-way ANOVA with Dunnett’s multiple-comparison test (n = 10) ****, P < 0.0001. […]

CO/C1=C\C(C)=C\[C@@H](C)[C@@H](O)[C@@H](C)C/C(C)=C/C=C/[C@H](OC)[C@@H]([C@@H](C)[C@@H](O)[C@H](C)[C@@]2(O)C[C@@H](O)[C@H](C)[C@@H](C(C)C)O2)OC1=O [BafA1, bafilomycin A1]
intracellular full-length L1 and L2 levels: prevented L1 and L2 degradation
